This is an account of results in US7186732B2, “Non-imidazole aryloxyalkylamines” (Ortho-McNeil Pharmaceutical, Inc., priority 2000, dated 2007).

The target in this assay is T1, human histamine H3 receptor (Homo sapiens, UniProt Q9Y5N1).
T1 construct: expressed in transfected cells; membranes prepared from cell pellets
The assay is described as follows: [3H]-N-methylhistamine binding to membranes of histamine H3 receptor-expressing SK-N-MC cells. To be noted: 0.8 nM [3H]-N-methylhistamine, 45 min at 25° C., SK-N-MC cell membranes, read-out: Ki. As to the method: Thus in the present invention receptor binding was determined using the human histamine H3 receptor (See Lovenberg et al Mol. Pharmacol. 1999, 1107). Screening using the human receptor is particularly important for the identification of new therapies for the treatment of human disease. Conventional binding assays for example are determined using rat synaptosomes (Garbarg et al J. Pharmacol. Exp. Ther. 1992, 263, 304), rat cortical membranes (West et al Mol. Pharmacol. 1990, 610), and guinea pig brain (Korte et al Biochem. Biophys. Res. Commun. 1990, 978).
Transfection of Cells with Human Histamine Receptor
A 10 cm tissue culture dish with a confluent monolayer of SK-N-MC cells was split two days prior to transfection. Using sterile technique the media was removed and the cells were detached from the dish by the addition of trypsin. One fifth of the cells were then placed onto a new 10 cm dish. Cells were grown in a 37° C. incubator with 5% CO2 in Minimal Essential Media Eagle with 10% Fetal Bovine Serum. After two days cells were approximately 80% confluent. These were removed from the dish with trypsin and pelleted in a clinical centrifuge. The pellet was then re-suspended in 400 μL complete media and transferred to an electroporation cuvette with a 0.4 cm gap between the electrodes (Bio-Rad #165–2088). One microgram of supercoiled H3 receptor cDNA was added to the cells and mixed. The voltage for the electroporation was set at 0.25 kV, the capacitance was set at 960 μF. After electroporation the cells were diluted into 10 mL complete media and plated onto four 10 cm dishes. Because of the variability in the efficiency of electroporation, four different concentrations of cells were plated. The ratios used were; 1:20, 1:10, 1:5, with the remainder of the cells being added to the fourth dish. The cells were allowed to recover for 24 hours before adding the selection media (complete media with 600 μg/mL G418). After 10 days dishes were analyzed for surviving colonies of cells. Dishes with well isolated colonies were used. Cells from individual colonies were isolated and tested. SK-N-MC cells were used because they give efficient coupling for inhibition of adenylate cyclase. The clones that gave the most robust inhibition of adenylate cyclase in response to histamine were used for further study.
[^3H]-N-methylhistamine Binding
Cell pellets from histamine H3 receptor-expressing SK-N-MC cells were homogenized in 20 mM TrisHCI/0.5 mM EDTA. Supernatants from a 800 g spin were collected, recentrifuged at 30,000 g for 30 minutes. Pellets were re-homogenized in 50 mM Tris/5 mM EDTA (pH 7.4). Membranes were incubated with 0.8 nM [^3H]-N-methylhistamine plus/minus test compounds for 45 min at 25° C. and harvested by rapid filtration over GF/C glass fiber filters (pretreated with 0.3% polyethylenimine) followed by four washes with ice cold buffer. Filters were dried, added to 4 mL scintillation cocktail and then counted on a liquid scintillation counter. Non-specific binding was defined with 10 μM histamine. The pKi values were calculated based on a Kd of 800 pM and a ligand concentration ([L]) of 800 pM according to the formula: Ki=(IC50)/(1+([L]/(Kd))

Counter-ions that a name gives are not always drawn. Like-named read-outs stand apart in the source and are kept apart here.

T1 sequence (Q9Y5N1 whole entry): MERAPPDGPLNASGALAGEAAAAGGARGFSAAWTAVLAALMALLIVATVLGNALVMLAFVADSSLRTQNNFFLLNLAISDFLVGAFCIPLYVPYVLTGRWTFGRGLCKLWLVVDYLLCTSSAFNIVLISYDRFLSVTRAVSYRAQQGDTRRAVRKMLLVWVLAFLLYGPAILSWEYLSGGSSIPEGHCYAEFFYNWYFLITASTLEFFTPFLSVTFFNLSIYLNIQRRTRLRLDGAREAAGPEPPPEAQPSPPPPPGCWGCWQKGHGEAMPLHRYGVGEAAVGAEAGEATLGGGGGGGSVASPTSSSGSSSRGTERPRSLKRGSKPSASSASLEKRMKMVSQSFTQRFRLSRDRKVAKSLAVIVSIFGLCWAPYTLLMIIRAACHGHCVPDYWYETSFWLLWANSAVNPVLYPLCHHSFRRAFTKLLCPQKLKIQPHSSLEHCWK

For orientation: Ki means the equilibrium dissociation constant of an inhibitor or competing ligand from its target. As for `c1cncc(C2CCCCN2Cc2ccc(OCCCN3CCCCC3)cc2)c1` (stereo not drawn) [Example 61, 1-[4-(3-Piperidin-1-yl-propoxy)-benzyl]-1,2,3,4,5,6-hexahydro-[2,3′]bipyridinyl], the Ki (Ki=(IC50)/(1+([L]/(Kd))) was 2 nM.
The same measure, in the same setting: with `c1ccc(CC2CCN(Cc3ccc(OCCCN4CCCCC4)cc3)CC2)cc1` [Example 93, 1-{3-[4-(4-Benzyl-piperidin-1-ylmethyl)-phenoxy]-propyl}-piperidine] the figure was 1.3 nM.
On to `c1cc(OCCCN2CCCCC2)ccc1CN1CCC2(CC1)OCCO2` [Example 54, 8-[4-(3-Piperidin-1-yl-propoxy)-benzyl]-1,4-dioxa-8-aza-spiro[4.5]decane], for which the Ki (Ki=(IC50)/(1+([L]/(Kd))) was found to be 1 nM.
Turning to `c1ccc(NC2CCN(Cc3ccc(OCCCN4CCCCC4)cc3)CC2)nc1` [Example 41, {1-[4-(3-Piperidin-1-yl-propoxy)-benzyl]-piperidin-4-yl}-pyridin-2-yl-amine], the inhibition constant Ki (Ki=(IC50)/(1+([L]/(Kd))) came out at 0.8 nM.
On the same count and under the same terms, next, `CN(Cc1ccccc1)Cc1ccc(OCCCN2CCCCC2)cc1` [Example 80, Benzyl-methyl-[4-(3-piperidin-1-yl-propoxy)-benzyl]-amine]: 1 nM; `CN(Cc1ccccc1)C1CCN(Cc2ccc(OCCCN3CCCCC3)cc2)CC1` [Example 43, Benzyl-methyl-{1-[4-(3-piperidin-1-yl-propoxy)-benzyl]-piperidin-4-yl}-amine]: 0.5 nM.
Take `OC1(c2ccc(Cl)cc2)CCN(Cc2ccc(OCCCN3CCCCC3)cc2)CC1` [Example 86, 4-(4-Chloro-phenyl)-1-[4-(3-piperidin-1-yl-propoxy)-benzyl]-piperidin-4-ol]: where the note is “[…]”, the Ki came to 1.8 nM.
As for `c1ccc2c(c1)CCN(Cc1ccc(OCCN3CCCCC3)cc1)C2` [Example 21, 2-[4-(2-Piperidin-1-yl-ethoxy)-benzyl]-1,2,3,4-tetrahydro-isoquinoline], where the note is “Ki=(IC50)/(1+([L]/(Kd))”, the Ki was 4 nM.
Same read-out and setting: with `c1cc(-n2nnnc2SCCCN2CCCCC2)ccc1OCCCN1CCCCC1` [Example 32, 1-(3-{4-[5-(3-Piperidin-1-yl-propylsulfanyl)-tetrazol-1-yl]-phenoxy}-propyl)-piperidine] the figure was 0.5 nM; with `c1ccc(NCc2ccccc2OCCCN2CCCCC2)nc1` [Example 65, [2-(3-Piperidin-1-yl-propoxy)-benzyl]-pyridin-2-yl-amine], 100 nM.
On to `Clc1ccc(NCc2cccc(OCCCN3CCCCC3)c2)cc1` [Example 68, (4-Chloro-phenyl)-[3-(3-piperidin-1-yl-propoxy)-benzyl]-amine], for which, for the setting “Ki=(IC50)/(1+([L]/(Kd))”, the Ki turned out to be 89 nM.
The same measure, in the same setting: with `CN1CCCC1c1ccc(OCCCN2CCCCC2)cc1` (stereo not drawn) [Example 37, 1-{3-[4-(1-Methyl-pyrrolidin-2-yl)-phenoxy]-propyl}-piperidine] the figure was 0.4 nM.
As to `c1cc(OCCCN2CCCCC2)ccc1CN1CCOCC1` [Example 94, 4-[4-(3-Piperidin-1-yl-propoxy)-benzyl]-morpholine], the inhibition constant Ki (Ki=(IC50)/(1+([L]/(Kd))) was 0.7 nM.
Consider `c1cc(OCCCN2CCCCC2)ccc1OCCCN1CCCCC1` [Example 31, 1-{3-[4-(3-Piperidin-1-yl-propoxy)-phenoxy]-propyl}-piperidine], for which the inhibitory constant (Ki) (Ki=(IC50)/(1+([L]/(Kd))) is 0.5 nM.
For `c1ccc(NCc2ccc(OCCCN3CCCC3)cc2)nc1` [Example 39, Pyridin-2-yl-[4-(3-pyrrolidin-1-yl-propoxy)-benzyl]-amine], the inhibition constant (Ki) (Ki=(IC50)/(1+([L]/(Kd))) came to 4.5 nM.
The same measure, in the same setting: with `c1ccc(NCc2ccc(OCCCN3CCCCC3)cc2)nc1` [Example 84, [4-(3-Piperidin-1-yl-propoxy)-benzyl]-pyridin-2-yl-amine] the figure was 5 nM.
Still for that read-out and setting: next, `c1cc(-c2ncc(OCCCN3CCCCC3)cn2)ccc1OCCCN1CCCCC1` [Example 33, 5-(3-Piperidin-1-yl-propoxy)-2-[4-(3-piperidin-1-yl-propoxy)-phenyl]-pyrimidine]: 13 nM; `c1ccc2c(c1)CCN(Cc1ccc(OCCCN3CCCCC3)cc1)C2` [Example 36, 2-[4-(3-Piperidin-1-yl-propoxy)-benzyl]-1,2,3,4-tetrahydro-isoquinoline]: 0.7 nM.
Same read-out and setting: next, `COc1ccc(CCN(C)Cc2ccc(OCCCN3CCCCC3)cc2)cc1OC` [Example 82, [2-(3,4-Dimethoxy-phenyl)-ethyl]-methyl-[4-(3-piperidin-1-yl-propoxy)-benzyl]-amine]: 1.6 nM; `c1ccc(CN2CCN(c3ccc(OCCCN4CCCC4)cc3)CC2)cc1` [Example 24, 1-Benzyl-4-[4-(3-pyrrolidin-1-yl-propoxy)-phenyl]-piperazine]: 1.3 nM.
As for `OC1(c2ccc(OCCCN3CCCCC3)cc2)CCN(Cc2ccccc2)CC1` [Example 22, 1-Benzyl-4-[4-(3-piperidin-1-yl-propoxy)-phenyl]-piperidin-4-ol], where the note is “[…]”, the Ki was determined as 0.9 nM.
On to `Clc1ccc(NCc2ccccc2OCCCN2CCCCC2)cc1` [Example 67, (4-Chloro-phenyl)-[2-(3-piperidin-1-yl-propoxy)-benzyl]-amine], for which, where the note is “Ki=(IC50)/(1+([L]/(Kd))”, the inhibition constant (Ki) came out at 1500 nM.
Consider `CC(C)N1CCC(O)(c2ccc(OCCCN3CCCCC3)cc2)CC1` [Example 77, 1-Isopropyl-4-[4-(3-piperidin-1-yl-propoxy)-phenyl]-piperidin-4-ol], for which the Ki ([…]) was 2.9 nM.
Still for that read-out and setting: next, `c1ccc2c(c1)CCN2C1CCN(Cc2ccc(OCCCN3CCCCC3)cc2)CC1` [Example 64, 1-{1-[4-(3-Piperidin-1-yl-propoxy)-benzyl]-piperidin-4-yl}-2,3-dihydro-1H-indole]: 2 nM.
Consider `CN1CCN(CCCOc2ccc(CN3CCCCC3)cc2)CC1` [Example 52, 1-Methyl-4-[3-(4-piperidin-1-ylmethyl-phenoxy)-propyl]-piperazine], for which the inhibition constant (Ki) (Ki=(IC50)/(1+([L]/(Kd))) stood at 25 nM.
`OCCC1CCCCN1CCCOc1ccc(CN2CCCCC2)cc1` (stereo not drawn) [Example 69, 2-{1-[3-(4-Piperidin-1-ylmethyl-phenoxy)-propyl]-piperidin-2-yl}-ethanol]: for the setting “Ki=(IC50)/(1+([L]/(Kd))”, the inhibitory constant (Ki) amounted to 3.9 nM.
The same measure, in the same setting: with `C(=C1CCN(Cc2ccc(OCCCN3CCCCC3)cc2)CC1)c1ccccc1` [Example 72, 1-{3-[4-(4-Benzylidene-piperidin-1-ylmethyl)-phenoxy]-propyl}-piperidine] the figure was 1.3 nM.
Same read-out and setting: next, `CN(C)CCCOc1ccc(CN2CCCCC2)cc1` [Example 40, Dimethyl-[3-(4-piperidin-1-ylmethyl-phenoxy)-propyl]-amine]: 5.7 nM; `c1cc(N2CCNCC2)ccc1OCCCN1CCCCC1` [Example 25, 1-[4-(3-Piperidin-1-yl-propoxy)-phenyl]-piperazine hydrochloride]: 1 nM.
As to `c1cc(OCCCN2CCCCC2)ccc1CNC1CCCCC1` [Example 49, Cyclohexyl-[4-(3-piperidin-1-yl-propoxy)-benzyl]-amine], the inhibition constant (Ki) (Ki=(IC50)/(1+([L]/(Kd))) was determined as 1 nM.
For `c1ccc(CN(CCCn2cccc2-c2ccc(OCCCN3CCCCC3)cc2)Cc2ccccc2)cc1` [Example 92, Dibenzyl-(3-{2-[4-(3-piperidin-1-yl-propoxy)-phenyl]-pyrrol-1-yl}-propyl)-amine], the inhibitory constant (Ki) (Ki=(IC50)/(1+([L]/(Kd))) was 5.5 nM.
As for `CN1CCC(N(C)Cc2ccc(OCCCN3CCCCC3)cc2)CC1` [Example 76, Methyl-(1-methyl-piperidin-4-yl)-[4-(3-piperidin-1-yl-propoxy)-benzyl]-amine], the Ki (Ki=(IC50)/(1+([L]/(Kd))) was 1.1 nM.
Still for that read-out and setting: next, `CN(CCc1ccccc1)Cc1ccc(OCCCN2CCCCC2)cc1` [Example 83, Methyl-phenethyl-[4-(3-piperidin-1-yl-propoxy)-benzyl]-amine]: 1.7 nM; `CN1CCN(Cc2ccc(OCCCN3CCCCC3)cc2)CC1` [Example 53, 1-Methyl-4-[4-(3-piperidin-1-yl-propoxy)-benzyl]-piperazine]: 2.5 nM.
Same read-out and setting: with `OC1(c2ccccc2)CCN(Cc2ccc(OCCCN3CCCCC3)cc2)CC1` [Example 87, 4-Phenyl-1-[4-(3-piperidin-1-yl-propoxy)-benzyl]-piperidin-4-ol] the figure was 1 nM; with `C(=C\c1ccccc1)/CN1CCN(Cc2ccc(OCCCN3CCCCC3)cc2)CC1` [Example 75, 1-(3-Phenyl-allyl)-4-[4-(3-piperidin-1-yl-propoxy)-benzyl]-piperazine], 1.6 nM.
